# Laboratory results: ChEMBL document CHEMBL4270509, “Targeting Wnt-driven cancers: Discovery of novel tankyrase inhibitors” (Eur J Med Chem, 2017)
# Legend:
# [1] = Inhibition of Wnt/beta-catenin pathway (unknown origin) expressed in HEK293 cells by Wnt-responsive super-topflash luciferase reporter assay; type: cell-based; details: Homo sapiens
# MCF7 = test: Growth inhibition of human MCF7 cells incubated for 24 hrs by MTT assay; type: functional, cell-based; details: MCF7, 24 h
# [2] = target: T1, Poly [ADP-ribose] polymerase tankyrase-1 (Homo sapiens) (UniProt O95271); test: Inhibition of TNKS1 (unknown origin) at 0.5 uM by colorimetric method
# T1 sequence (whole entry): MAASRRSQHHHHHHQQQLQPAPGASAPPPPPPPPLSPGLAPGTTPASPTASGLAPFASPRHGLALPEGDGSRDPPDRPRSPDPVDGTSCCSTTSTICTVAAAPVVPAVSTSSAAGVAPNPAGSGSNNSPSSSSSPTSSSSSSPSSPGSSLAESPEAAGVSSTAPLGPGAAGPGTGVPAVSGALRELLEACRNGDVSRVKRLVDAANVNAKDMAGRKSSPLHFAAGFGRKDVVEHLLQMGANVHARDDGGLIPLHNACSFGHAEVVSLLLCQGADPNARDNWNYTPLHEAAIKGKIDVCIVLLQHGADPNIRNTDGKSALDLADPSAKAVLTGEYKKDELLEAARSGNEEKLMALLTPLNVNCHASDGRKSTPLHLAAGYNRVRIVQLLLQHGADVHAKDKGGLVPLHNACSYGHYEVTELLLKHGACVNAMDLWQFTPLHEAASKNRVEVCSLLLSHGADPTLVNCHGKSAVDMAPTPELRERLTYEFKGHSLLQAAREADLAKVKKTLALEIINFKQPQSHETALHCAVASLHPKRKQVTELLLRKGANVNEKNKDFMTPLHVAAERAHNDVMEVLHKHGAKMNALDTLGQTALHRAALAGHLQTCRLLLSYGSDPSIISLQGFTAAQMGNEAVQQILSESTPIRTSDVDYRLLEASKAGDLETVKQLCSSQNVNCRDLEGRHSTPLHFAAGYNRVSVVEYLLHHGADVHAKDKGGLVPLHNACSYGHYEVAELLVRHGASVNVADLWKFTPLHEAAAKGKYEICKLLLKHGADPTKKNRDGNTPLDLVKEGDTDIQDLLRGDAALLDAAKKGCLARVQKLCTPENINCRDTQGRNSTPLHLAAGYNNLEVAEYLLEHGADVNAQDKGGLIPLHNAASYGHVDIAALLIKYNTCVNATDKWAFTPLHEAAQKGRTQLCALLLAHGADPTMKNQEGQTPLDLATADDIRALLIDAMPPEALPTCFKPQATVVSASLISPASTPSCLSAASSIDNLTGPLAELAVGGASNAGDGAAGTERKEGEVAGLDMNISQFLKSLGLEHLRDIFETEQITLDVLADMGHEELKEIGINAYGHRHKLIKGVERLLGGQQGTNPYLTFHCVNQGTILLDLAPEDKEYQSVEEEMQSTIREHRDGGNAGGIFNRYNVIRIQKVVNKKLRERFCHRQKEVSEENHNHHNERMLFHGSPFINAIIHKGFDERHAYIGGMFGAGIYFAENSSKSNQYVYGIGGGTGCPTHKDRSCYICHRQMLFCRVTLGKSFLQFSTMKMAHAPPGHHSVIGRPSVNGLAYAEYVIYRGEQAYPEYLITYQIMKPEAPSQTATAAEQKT
# [3] = target: T2, Poly [ADP-ribose] polymerase tankyrase-1 (Homo sapiens, UniProt O95271)
# T2 sequence (O95271 whole entry): T1 sequence (whole entry)
# Description: Inhibition of human TNKS1 (1030 to 1317 residues) by fluorescence based activity assay
# SW480 = test: Antitumor activity against human SW480 cells xenografted in CB17/SCID mouse assessed as inhibition of tumor growth at 150 to 300 mg/kg after 3 weeks; type: functional
# [4] = target: T2, Poly [ADP-ribose] polymerase tankyrase-1; test: Inhibition of TNKS1 (unknown origin)
smiles,measurement,setting,value
N#Cc1ccccc1Cn1c(=O)n(CC2CCC(C(=O)NCc3ccccc3)CC2)c(=O)c2ccccc21 (centres undefined),EC50,[1],0.18 to 2 µM
O=C(NC1CCCC1)c1ccc(Cn2c(=O)c3ccccc3n(Cc3cc(=O)n4ccccc4n3)c2=O)cc1,EC50,[1],0.18 to 2 µM
Cc1c(Cl)cccc1NC(CC(=O)c1ccccc1)C(=O)OCC(=O)c1ccc([N+](=O)[O-])cc1 (centres undefined),IC50,MCF7,5 µM
same,inhibition,[2],60%
Cc1cccc2nc(Cn3c(=O)n(CC4CCC(C(=O)NCc5ccccc5)CC4)c(=O)c4ccccc43)cc(=O)n12 (centres undefined),EC50,[1],0.18 to 2 µM
CC(C)(C)c1ccc(-c2nc3ccccc3c(=O)[nH]2)cc1,IC50,[3],0.005 µM
COc1ccc(-n2c(SCc3nc(-c4ccc(C)cc4)no3)nnc2-c2ccncc2)cc1,TGI,SW480,30%
Cn1c(-c2ccc(Cl)cc2Cl)nc(=O)c2cccnc21,IC50,[4],11 µM
O=C(Nc1cccc2cccnc12)c1ccc(C2C(=O)[C@@H]3[C@H](C2=O)[C@@H]2C=C[C@H]3C2)cc1 (some centres undefined),EC50,[1],0.18 to 2 µM
